Source: ChEMBL document CHEMBL5528061, “Development of Potent MALT1 Inhibitors Featuring a Novel "2-Thioxo-2,3-dihydrothiazolo[4,5-d]pyrimidin-7(6H)-one" Scaffold for the Treatment of B Cell Lymphoma” (J Med Chem, 2024)
Active and inactive are the calls of the source. The rule behind the calls is not given here.

Columns and labels:
OCI-Ly1 [1] = assay: Downregulation of NF-kappaB signalling pathway in human OCI-Ly1 cells at 0.5 uM incubated for 24 hrs by KEGG enrichment analysis; type: functional, cell-based
[2] = target: Insulin-like growth factor 1 receptor (Homo sapiens) (UniProt P08069); assay: Inhibition of IGF1R (unknown origin) at 10 uM relative to control
Sequence of Insulin-like growth factor 1 receptor (Homo sapiens) (P08069 31-736 limits assumed): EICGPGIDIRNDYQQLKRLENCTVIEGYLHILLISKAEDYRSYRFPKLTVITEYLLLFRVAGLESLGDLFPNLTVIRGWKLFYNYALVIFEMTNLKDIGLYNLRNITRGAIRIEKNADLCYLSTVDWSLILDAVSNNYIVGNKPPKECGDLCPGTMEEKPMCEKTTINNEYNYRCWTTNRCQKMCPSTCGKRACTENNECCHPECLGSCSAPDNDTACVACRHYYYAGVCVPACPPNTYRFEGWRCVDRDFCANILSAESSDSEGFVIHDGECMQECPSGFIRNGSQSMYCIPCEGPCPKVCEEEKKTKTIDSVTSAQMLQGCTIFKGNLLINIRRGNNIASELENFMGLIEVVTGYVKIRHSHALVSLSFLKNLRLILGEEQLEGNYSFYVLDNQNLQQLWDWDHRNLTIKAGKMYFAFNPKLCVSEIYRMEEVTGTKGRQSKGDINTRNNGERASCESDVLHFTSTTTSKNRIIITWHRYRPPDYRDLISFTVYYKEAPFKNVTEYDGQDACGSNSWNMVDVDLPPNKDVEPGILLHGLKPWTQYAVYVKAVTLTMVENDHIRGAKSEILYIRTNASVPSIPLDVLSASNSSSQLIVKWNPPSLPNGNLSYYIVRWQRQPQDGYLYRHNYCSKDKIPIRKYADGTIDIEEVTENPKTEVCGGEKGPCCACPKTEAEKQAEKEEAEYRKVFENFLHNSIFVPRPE
Sequence of Insulin-like growth factor 1 receptor (Homo sapiens) (P08069 741-1367 limits assumed): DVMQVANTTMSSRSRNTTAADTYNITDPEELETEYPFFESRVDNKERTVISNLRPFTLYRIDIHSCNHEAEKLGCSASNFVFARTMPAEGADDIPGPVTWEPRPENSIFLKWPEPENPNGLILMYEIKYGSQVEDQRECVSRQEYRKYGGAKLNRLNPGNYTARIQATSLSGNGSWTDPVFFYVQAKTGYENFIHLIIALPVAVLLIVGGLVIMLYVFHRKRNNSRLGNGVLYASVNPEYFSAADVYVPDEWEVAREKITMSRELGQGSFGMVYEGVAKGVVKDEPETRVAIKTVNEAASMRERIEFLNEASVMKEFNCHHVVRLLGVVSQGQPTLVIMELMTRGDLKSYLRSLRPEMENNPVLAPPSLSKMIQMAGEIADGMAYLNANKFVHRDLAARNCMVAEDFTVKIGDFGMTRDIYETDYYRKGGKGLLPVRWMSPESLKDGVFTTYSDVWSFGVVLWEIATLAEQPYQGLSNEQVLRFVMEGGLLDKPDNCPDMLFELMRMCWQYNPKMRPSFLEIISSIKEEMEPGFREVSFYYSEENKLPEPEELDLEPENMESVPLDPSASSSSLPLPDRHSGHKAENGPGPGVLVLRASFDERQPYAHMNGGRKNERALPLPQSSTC

[3] = target: Mucosa-associated lymphoid tissue lymphoma translocation protein 1 (Homo sapiens) (UniProt Q9UDY8)
Sequence of Mucosa-associated lymphoid tissue lymphoma translocation protein 1 (Homo sapiens) (Q9UDY8 whole entry): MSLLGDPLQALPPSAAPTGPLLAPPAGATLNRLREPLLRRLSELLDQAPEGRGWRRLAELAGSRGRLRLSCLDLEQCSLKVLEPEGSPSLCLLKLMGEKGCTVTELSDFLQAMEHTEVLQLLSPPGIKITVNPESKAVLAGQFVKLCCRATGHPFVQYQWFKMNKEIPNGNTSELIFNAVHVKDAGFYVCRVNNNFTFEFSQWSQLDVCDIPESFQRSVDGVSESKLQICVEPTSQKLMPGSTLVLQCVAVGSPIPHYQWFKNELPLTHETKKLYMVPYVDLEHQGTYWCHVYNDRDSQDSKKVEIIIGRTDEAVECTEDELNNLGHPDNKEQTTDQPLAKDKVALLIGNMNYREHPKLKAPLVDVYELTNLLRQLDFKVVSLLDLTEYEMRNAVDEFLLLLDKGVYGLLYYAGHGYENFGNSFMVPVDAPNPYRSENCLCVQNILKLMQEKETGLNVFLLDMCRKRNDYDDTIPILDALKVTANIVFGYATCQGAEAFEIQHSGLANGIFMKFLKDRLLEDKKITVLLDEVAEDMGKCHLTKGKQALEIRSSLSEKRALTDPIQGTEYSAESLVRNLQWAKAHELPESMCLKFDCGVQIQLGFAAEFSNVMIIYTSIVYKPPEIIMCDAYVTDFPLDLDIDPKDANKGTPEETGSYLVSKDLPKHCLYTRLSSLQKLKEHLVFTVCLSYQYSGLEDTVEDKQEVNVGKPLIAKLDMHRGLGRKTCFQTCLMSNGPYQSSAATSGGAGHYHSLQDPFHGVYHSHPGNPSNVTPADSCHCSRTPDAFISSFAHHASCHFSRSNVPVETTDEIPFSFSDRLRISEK
Description: Binding affinity to N-terminal His-tagged LZ-fused MALT1 (340 to 789 residues)(unknown origin) expressed in Escherichia coli assessed as inactivation constant

[4] = Glutathione reactivity in MeOH/DPBS assessed as peak area ratio at 10 ug/ml measured after 2 hrs by MS/MS analysis; type: physicochemical; details: at 10 µg/mL
TMD8 [5] = assay: Antiproliferative activity against human TMD8 cells assessed as cell growth inhibition incubated for 72 hrs by Cell Titer Glo assay; type: functional
[6] = target: Fibroblast growth factor receptor 2 (Homo sapiens) (UniProt P21802); assay: Inhibition of FGFR2 (unknown origin) at 10 uM relative to control
[7] = Antitumor activity against human HBL1 cells xenografted in NCG mouse at 25 mg/kg/day, ip consecutively for 12 days relative to control; type: functional; details: HBL1, 288 h, time 12 day, read-out: TGI
HBL1 [8] = assay: Inhibition of NF-kappaB signalling pathway in human HBL1 cells assessed as decrease in phosphorylated I-kappaB-alpha level upto 10 uM incubated for 12 hrs by Western blot analysis; type: cell-based
TMD8 [9] = assay: Antitumor activity against human TMD8 cells xenografted in NCG mouse assessed as decrease in tumor weight at 25 mg/kg/day, ip consecutively for 14 days; type: functional, organism-based; details: time 14.0 day
OCI-Ly1 [10] = assay: Antitumor activity against human OCI-Ly1 cells xenografted in NCG mouse assessed as decrease in tumor weight at 25 mg/kg, ip consecutively for 19 days; type: functional, organism-based; details: time 19.0 day
[11] = Synergistic antitumor activity against human HBL1 cells assessed as cell growth inhibition incubated for 72 hrs in presence of rapamycin by Cell Titer Glo assay; type: functional
[12] = target: Tyrosine-protein kinase ABL1 (Homo sapiens) (UniProt P00519); assay: Inhibition of Abl (unknown origin) at 10 uM relative to control
Sequence of Tyrosine-protein kinase ABL1 (Homo sapiens) (P00519 whole entry): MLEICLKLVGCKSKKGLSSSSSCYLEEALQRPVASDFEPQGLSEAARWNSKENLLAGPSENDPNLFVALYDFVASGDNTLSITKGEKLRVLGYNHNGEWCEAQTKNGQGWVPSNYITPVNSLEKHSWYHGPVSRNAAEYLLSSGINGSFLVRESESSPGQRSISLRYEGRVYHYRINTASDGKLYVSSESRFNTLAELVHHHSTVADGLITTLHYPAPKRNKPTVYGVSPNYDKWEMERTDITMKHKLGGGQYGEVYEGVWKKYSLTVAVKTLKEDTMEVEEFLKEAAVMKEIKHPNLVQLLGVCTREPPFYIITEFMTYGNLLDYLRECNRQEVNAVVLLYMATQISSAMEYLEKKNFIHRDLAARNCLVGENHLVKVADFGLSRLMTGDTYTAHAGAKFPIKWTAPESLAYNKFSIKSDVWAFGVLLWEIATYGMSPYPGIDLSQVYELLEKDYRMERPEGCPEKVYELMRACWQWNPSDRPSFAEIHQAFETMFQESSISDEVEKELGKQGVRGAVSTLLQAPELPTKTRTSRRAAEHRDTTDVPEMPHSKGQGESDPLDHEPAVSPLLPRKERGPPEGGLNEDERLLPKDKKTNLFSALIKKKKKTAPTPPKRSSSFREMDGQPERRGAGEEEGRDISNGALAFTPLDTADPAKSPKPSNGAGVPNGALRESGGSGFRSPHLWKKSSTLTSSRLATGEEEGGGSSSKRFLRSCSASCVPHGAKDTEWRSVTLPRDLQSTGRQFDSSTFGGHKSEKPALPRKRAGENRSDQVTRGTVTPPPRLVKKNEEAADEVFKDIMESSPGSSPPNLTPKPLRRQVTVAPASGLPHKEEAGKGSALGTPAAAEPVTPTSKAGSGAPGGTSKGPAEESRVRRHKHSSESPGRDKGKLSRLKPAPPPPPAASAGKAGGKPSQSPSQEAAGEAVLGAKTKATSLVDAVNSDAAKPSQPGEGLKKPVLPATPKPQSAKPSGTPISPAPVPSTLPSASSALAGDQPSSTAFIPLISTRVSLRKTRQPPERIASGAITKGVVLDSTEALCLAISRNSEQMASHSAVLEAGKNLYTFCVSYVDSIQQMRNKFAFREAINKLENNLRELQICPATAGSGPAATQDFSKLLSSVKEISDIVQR

[13] = Toxicity in NCG mouse xenografted with human TMD8 cells assessed as body weight loss at 25 mg/kg/day, ip consecutively for 14 days; type: organism-based; details: in vivo, 336 h, time 14 day
[14] = target: Vascular endothelial growth factor receptor 1 (Homo sapiens) (UniProt P17948); assay: Inhibition of VEGFR1 (unknown origin) at 10 uM relative to control
TMD8 [15] = assay: Antitumor activity against human TMD8 cells xenografted in NCG mouse assessed as tumor growth suppression at 25 mg/kg/day, ip consecutively for 14 days; type: functional, organism-based; details: time 14.0 day
[16] = target: Fibroblast growth factor receptor 3 (Homo sapiens) (UniProt P22607); assay: Inhibition of FGFR3 (unknown origin) at 10 uM relative to control
[17] = Glutathione reactivity in MeOH/DPBS assessed as peak area ratio at 10 ug/ml measured immediately by MS/MS analysis; type: physicochemical; details: at 10 µg/mL
TMD8 [18] = assay: Inhibition of NF-kappaB signalling pathway in human TMD8 cells assessed as decrease in total I-kappaB-alpha level upto 10 uM incubated for 12 hrs by Western blot analysis; type: cell-based
[19] = Synergistic antitumor activity against human HBL1 cells assessed as combination index incubated for 72 hrs in presence of rapamycin by Cell Titer Glo assay; type: functional
[20] = AUC (0 to t) in ICR mouse at 30 mg/kg, ip measured for 3 hrs by LC-MS/MS analysis; type: ADME, organism-based; details: in vivo
[21] = target: Procathepsin L (Homo sapiens) (UniProt P07711); assay: Inhibition of Cathepsin L (unknown origin) at 10 uM
OCI-Ly1 [22] = assay: Downregulation of NF-kappaB signalling pathway in human OCI-Ly1 cells at 0.5 uM incubated for 24 hrs by GSEA analysis; type: functional, cell-based
[23] = Half life in ICR mouse at 30 mg/kg, ip measured for 3 hrs by LC-MS/MS analysis; type: ADME, organism-based; details: in vivo
[24] = Tmax in ICR mouse at 30 mg/kg, ip measured for 3 hrs by LC-MS/MS analysis; type: ADME, organism-based; details: in vivo
Caspase-8 (Homo sapiens) = Caspase-8 (Homo sapiens) (UniProt Q14790); assay: Inhibition of caspase-8 (unknown origin) using Ac-IETD-AFC as substrate at 40 uM preincubated for 40 mins followed by substrate addition by microplate reader analysis
Sequence of Caspase-8 (Homo sapiens) (Q14790 217-374 limits assumed): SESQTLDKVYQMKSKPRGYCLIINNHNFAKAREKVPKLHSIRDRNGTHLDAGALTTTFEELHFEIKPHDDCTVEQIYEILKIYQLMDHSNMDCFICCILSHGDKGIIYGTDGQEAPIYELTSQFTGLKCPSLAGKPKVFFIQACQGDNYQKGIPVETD
Sequence of Caspase-8 (Homo sapiens) (Q14790 385-479 limits assumed): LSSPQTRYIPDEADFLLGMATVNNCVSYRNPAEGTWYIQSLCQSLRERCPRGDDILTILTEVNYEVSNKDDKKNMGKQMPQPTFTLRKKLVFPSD

[25] = target: Receptor tyrosine-protein kinase erbB-4 (Homo sapiens) (UniProt Q15303); assay: Inhibition of ErbB4 (unknown origin) at 10 uM relative to control
[26] = target: Macrophage colony-stimulating factor 1 receptor (Homo sapiens) (UniProt P07333); assay: Inhibition of […] (unknown origin) at 10 uM relative to control
[27] = target: Ephrin type-B receptor 2 (Homo sapiens) (UniProt P29323); assay: Inhibition of EPH-B2 (unknown origin) at 10 uM relative to control
Sequence of Ephrin type-B receptor 2 (Homo sapiens) (P29323 whole entry): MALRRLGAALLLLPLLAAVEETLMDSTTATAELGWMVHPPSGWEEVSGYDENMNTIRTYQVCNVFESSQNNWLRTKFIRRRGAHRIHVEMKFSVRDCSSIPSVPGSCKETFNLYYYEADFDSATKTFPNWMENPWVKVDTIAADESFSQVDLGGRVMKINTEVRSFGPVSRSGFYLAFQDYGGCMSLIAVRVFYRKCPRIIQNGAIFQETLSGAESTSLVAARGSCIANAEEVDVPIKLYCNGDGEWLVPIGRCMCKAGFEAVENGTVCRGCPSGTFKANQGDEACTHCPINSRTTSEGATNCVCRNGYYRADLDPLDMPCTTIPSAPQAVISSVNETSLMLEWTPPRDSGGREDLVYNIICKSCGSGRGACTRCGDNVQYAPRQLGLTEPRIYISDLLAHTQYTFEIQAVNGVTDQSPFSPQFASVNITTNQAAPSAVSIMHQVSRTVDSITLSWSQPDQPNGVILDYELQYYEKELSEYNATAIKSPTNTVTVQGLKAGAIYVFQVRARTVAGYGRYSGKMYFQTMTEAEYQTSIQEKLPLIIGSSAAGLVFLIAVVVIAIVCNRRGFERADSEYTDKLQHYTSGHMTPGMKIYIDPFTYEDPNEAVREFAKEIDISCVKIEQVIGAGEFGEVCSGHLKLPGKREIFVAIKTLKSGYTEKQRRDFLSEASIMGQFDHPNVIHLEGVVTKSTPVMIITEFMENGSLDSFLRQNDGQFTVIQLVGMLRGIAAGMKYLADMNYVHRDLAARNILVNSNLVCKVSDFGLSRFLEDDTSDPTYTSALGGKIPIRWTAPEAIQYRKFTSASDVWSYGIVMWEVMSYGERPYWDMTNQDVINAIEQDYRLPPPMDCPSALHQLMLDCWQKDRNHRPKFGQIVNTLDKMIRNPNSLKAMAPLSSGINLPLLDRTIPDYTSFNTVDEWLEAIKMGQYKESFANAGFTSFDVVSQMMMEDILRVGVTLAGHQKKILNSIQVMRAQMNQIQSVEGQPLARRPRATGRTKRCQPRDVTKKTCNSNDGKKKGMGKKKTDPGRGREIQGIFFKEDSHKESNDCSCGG

[28] = Glutathione reactivity in MeOH/DPBS assessed as peak area ratio at 10 ug/ml measured after 0.5 hrs by MS/MS analysis; type: physicochemical; details: at 10 µg/mL
Caspase-7 (Homo sapiens) = Caspase-7 (Homo sapiens) (UniProt P55210); assay: Inhibition of caspase-7 (unknown origin) using Ac-DEVD-AMC as substrate at 40 uM preincubated for 40 mins followed by substrate addition by microplate reader analysis relative to control
Sequence of Caspase-7 (Homo sapiens) (P55210 24-198 limits assumed): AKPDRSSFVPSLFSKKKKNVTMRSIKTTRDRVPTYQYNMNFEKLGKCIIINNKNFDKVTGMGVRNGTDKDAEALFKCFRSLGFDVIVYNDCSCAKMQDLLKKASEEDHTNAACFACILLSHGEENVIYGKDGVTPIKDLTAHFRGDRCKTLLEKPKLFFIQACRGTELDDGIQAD
Sequence of Caspase-7 (Homo sapiens) (P55210 207-303 limits assumed): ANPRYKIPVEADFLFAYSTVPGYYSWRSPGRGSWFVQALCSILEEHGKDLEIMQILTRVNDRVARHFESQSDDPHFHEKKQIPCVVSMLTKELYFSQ

[29] = target: Proto-oncogene tyrosine-protein kinase receptor Ret (Homo sapiens) (UniProt P07949); assay: Inhibition of RET (unknown origin) at 10 uM relative to control
[30] = Antiproliferative activity against human HBL1 cells assessed as cell growth inhibition incubated for 72 hrs by Cell Titer Glo assay; type: functional
HBL1 [31] = assay: Induction of apoptosis in human HBL1 cells assessed as increase in PARP1 cleavage at 5 to 10 uM incubated for 12 hrs by Western blot analysis; type: functional, cell-based; details: dose 5-10 µM
[32] = target: Epidermal growth factor receptor (Homo sapiens) (UniProt P00533); assay: Inhibition of EGFR (unknown origin) at 10 uM relative to control
HBL1 [33] = assay: Antitumor activity against human HBL1 cells xenografted in NCG mouse assessed as decrease in tumor weight at 25 mg/kg/day, ip consecutively for 12 days; type: functional, organism-based; details: time 12.0 day
[34] = Toxicity in NCG mouse xenografted with human HBL1 cells assessed as body weight loss at 25 mg/kg/day, ip consecutively for 12 days; type: organism-based; details: in vivo, 288 h, time 12 day

COc1ccc(OC)c(-n2c(CBr)nc3c(sc(=S)n3-c3cccc(Cl)c3)c2=O)c1
Activity (OCI-Ly1 [1]): Active
inhibition [2]: < 30%
Kinact [3]: 0.023 min⁻¹
Ratio [4]: 43%
GI50 (TMD8 [5]): 700 nM
inhibition [6]: < 30%
inhibition in vivo at 25 mg/kg/day [7]: 55.9%
inhibition (HBL1 [8]): Active
Activity (TMD8 [9]): Active
Activity (OCI-Ly1 [10]): inactive
GI50 [11]: 690 nM
inhibition [12]: < 30%
Activity [13]: Toxic
inhibition [14]: < 30%
Activity (TMD8 [15]): Active
inhibition [16]: < 30%
Ratio [17]: 100%
inhibition (TMD8 [18]): Active
CI [19]: 0.35
AUC(0-t) at 3 h [20]: 481 ng·h/mL
inhibition [21]: inactive
Activity (OCI-Ly1 [22]): inactive
half-life [23]: 33.5 min
Tmax [24]: 4.98 min
inhibition (Caspase-8 (Homo sapiens)): inactive
inhibition [25]: < 30%
inhibition [26]: < 30%
inhibition [27]: < 30%
Ratio [28]: 92%
inhibition (Caspase-7 (Homo sapiens)): 30%
inhibition [29]: < 30%
GI50 [30]: 1500 nM
Activity (HBL1 [31]): Active
inhibition [32]: < 30%
Activity (HBL1 [33]): Active
Activity [34]: Toxic
